In patent US8802597B2, “Herbicidal pyrimidines” (E I du Pont de Nemours and Company, priority 2003, dated 2014):
Read-outs that look alike come from different tables or passages of the source.

Key:
Assay in all cases: Test C pre/postemergence
Assay type in all cases: in vivo
[1] = tested on: goosegrass (Eleusine indica); details: Eleusine indica; for pest or weed control at 31 g/ha: 31 g ai/ha; for pest or weed control at 62 g/ha: 62 g ai/ha; for pest or weed control at 125 g/ha: 125 g ai/ha; for pest or weed control at 250 g/ha: 250 g ai/ha
Procedure, shortened: (§1)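 Seeds sown and sprayed preemergence with test compound in non-phytotoxic solvent containing surfactant; postemergence sprays, same formulation, went onto plants 2 to 18 cm tall (1- to 4-leaf stage). Plants held in greenhouse 12 to 14 days, then visually rated against untreated controls on a 0–100 scale (0 no effect, 100 complete control).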

[2] = tested on: cocklebur (Xanthium strumarium); details: Xanthium strumarium; for pest or weed control at 31 g/ha: 31 g ai/ha; for pest or weed control at 125 g/ha: 125 g ai/ha; for pest or weed control at 250 g/ha: 250 g ai/ha
Procedure, shortened: as §1

[3] = tested on: common ragweed (Ambrosia elatior); details: Ambrosia artemisiifolia; for pest or weed control at 31 g/ha: 31 g ai/ha; for pest or weed control at 62 g/ha: 62 g ai/ha; for pest or weed control at 125 g/ha: 125 g ai/ha; for pest or weed control at 250 g/ha: 250 g ai/ha
Procedure, shortened: as §1

[4] = tested on: lambsquarters (Chenopodium album); details: Chenopodium album; for pest or weed control at 31 g/ha: 31 g ai/ha; for pest or weed control at 62 g/ha: 62 g ai/ha; for pest or weed control at 125 g/ha: 125 g ai/ha; for pest or weed control at 250 g/ha: 250 g ai/ha
Procedure, shortened: as §1

[5] = tested on: velvetleaf (Abutilon theophrasti); details: Abutilon theophrasti; for pest or weed control at 31 g/ha: 31 g ai/ha; for pest or weed control at 62 g/ha: 62 g ai/ha; for pest or weed control at 125 g/ha: 125 g ai/ha; for pest or weed control at 250 g/ha: 250 g ai/ha
Procedure, shortened: as §1

corn (Zea mays) = details: Zea mays; for Corn plant response rating (crop injury, 0 = no effect, 100 = complete kill) at 31 g/ha: 31 g ai/ha; for Corn plant response rating (crop injury, 0 = no effect, 100 = complete kill) at 62 g/ha: 62 g ai/ha
Procedure, shortened: as §1

[6] = post-emergence, Postemergence, scale 0 to 100 (0 no effect, 100 complete control), read-out: Goosegrass plant response rating
[7] = pre-emergence, Preemergence, scale 0 to 100, 0 no effect, 100 complete control, read-out: Plant response rating, Goosegrass
[8] = pre-emergence, Preemergence, scale 0 to 100, read-out: Plant response rating, Goosegrass
[9] = pre-emergence, Preemergence, scale 0 to 100, read-out: Plant response rating, Cocklebur
[10] = post-emergence, Postemergence, scale 0 to 100 (0 no effect, 100 complete control), read-out: Ragweed plant response rating
[11] = pre-emergence, Preemergence, scale 0 to 100, 0 no effect, 100 complete control, read-out: Plant response rating, Ragweed
[12] = pre-emergence, Preemergence, scale 0 to 100, read-out: Plant response rating, Ragweed
[13] = post-emergence, Postemergence, scale 0 to 100 (0 no effect, 100 complete control), read-out: Lambsquarters plant response rating
[14] = pre-emergence, Preemergence, scale 0 to 100, 0 no effect, 100 complete control, read-out: Plant response rating, Lambsquarters
[15] = pre-emergence, Preemergence, scale 0 to 100, read-out: Plant response rating, Lambsquarters
[16] = post-emergence, Postemergence, scale 0 to 100 (0 no effect, 100 complete control), read-out: Velvetleaf plant response rating
[17] = pre-emergence, Preemergence, scale 0 to 100, 0 no effect, 100 complete control, read-out: Plant response rating, Velvetleaf
[18] = pre-emergence, Preemergence, scale 0 to 100, read-out: Plant response rating, Velvetleaf
[19] = pre-emergence, Preemergence, scale 0 to 100, 0 no effect, 100 complete control, read-out: Plant response rating, Corn

`COC(=O)c1nc(C2CC2)nc(N)c1Br` [Compound 2, methyl 6-amino-5-bromo-2-cyclopropyl-4-pyrimidinecarboxylate] was tested. Which pest or weed control at 31 g/ha ([1]; post-emergence, Postemergence, read-out: Plant response rating (scale of 0 to 100), Goosegrass) did it give?
The pest or weed control at 31 g/ha was 0%.

And the pest or weed control at 62 g/ha [1, 6]?
The pest or weed control at 62 g/ha was 0%.

And the pest or weed control at 125 g/ha [1, 6]?
Its pest or weed control at 125 g/ha is 0%.

And the pest or weed control at 250 g/ha ([1]; post-emergence, Postemergence, scale 0 to 100, read-out: Plant response rating, Goosegrass)?
Its pest or weed control at 250 g/ha is 45%.

And the pest or weed control at 31 g/ha [1, 7]?
Its pest or weed control at 31 g/ha is 0%.

What about the pest or weed control at 62 g/ha [1, 7] of the same compound?
Its pest or weed control at 62 g/ha is 0%.

And the pest or weed control at 125 g/ha [1, 8]?
The pest or weed control at 125 g/ha was 0%.

And the pest or weed control at 250 g/ha [1, 8]?
The pest or weed control at 250 g/ha was 60%.

What about the pest or weed control at 31 g/ha ([2]; post-emergence, Postemergence, read-out: Plant response rating (scale of 0 to 100), Cocklebur) of the same compound?
Its pest or weed control at 31 g/ha is 65%.

And the pest or weed control at 62 g/ha ([2]; post-emergence, Postemergence, 62 g ai/ha, scale 0 to 100 (0 no effect, 100 complete control), read-out: Cocklebur plant response rating)?
The pest or weed control at 62 g/ha was 75%.

What about the pest or weed control at 125 g/ha ([2]; post-emergence, Postemergence, scale 0 to 100 (0 no effect, 100 complete control), read-out: Cocklebur plant response rating) of the same compound?
The pest or weed control at 125 g/ha was 85%.

What about the pest or weed control at 250 g/ha ([2]; post-emergence, Postemergence, scale 0 to 100, read-out: Plant response rating, Cocklebur) of the same compound?
Its pest or weed control at 250 g/ha is 85%.

And the pest or weed control at 31 g/ha ([2]; pre-emergence, Preemergence, scale 0 to 100, 0 no effect, 100 complete control, read-out: Plant response rating, Cocklebur)?
The pest or weed control at 31 g/ha was 60%.

What about the pest or weed control at 125 g/ha [2, 9] of the same compound?
Its pest or weed control at 125 g/ha is 80%.

What about the pest or weed control at 250 g/ha [2, 9] of the same compound?
Its pest or weed control at 250 g/ha is 100%.

And the pest or weed control at 31 g/ha ([3]; post-emergence, Postemergence, read-out: Plant response rating (scale of 0 to 100), Ragweed)?
Its pest or weed control at 31 g/ha is 65%.

What about the pest or weed control at 62 g/ha [3, 10] of the same compound?
Its pest or weed control at 62 g/ha is 85%.

What about the pest or weed control at 125 g/ha [3, 10] of the same compound?
Its pest or weed control at 125 g/ha is 90%.

What about the pest or weed control at 250 g/ha ([3]; post-emergence, Postemergence, scale 0 to 100, read-out: Plant response rating, Ragweed) of the same compound?
Its pest or weed control at 250 g/ha is 95%.

What about the pest or weed control at 31 g/ha [3, 11] of the same compound?
The pest or weed control at 31 g/ha was 0%.

And the pest or weed control at 62 g/ha [3, 11]?
The pest or weed control at 62 g/ha was 0%.

What about the pest or weed control at 125 g/ha [3, 12] of the same compound?
Its pest or weed control at 125 g/ha is 0%.

And the pest or weed control at 250 g/ha [3, 12]?
The pest or weed control at 250 g/ha was 0%.

What about the pest or weed control at 31 g/ha ([4]; post-emergence, Postemergence, read-out: Plant response rating (scale of 0 to 100), Lambsquarters) of the same compound?
The pest or weed control at 31 g/ha was 100%.

What about the pest or weed control at 62 g/ha [4, 13] of the same compound?
The pest or weed control at 62 g/ha was 100%.

And the pest or weed control at 125 g/ha [4, 13]?
The pest or weed control at 125 g/ha was 100%.

What about the pest or weed control at 250 g/ha ([4]; post-emergence, Postemergence, scale 0 to 100, read-out: Plant response rating, Lambsquarters) of the same compound?
The pest or weed control at 250 g/ha was 100%.

What about the pest or weed control at 31 g/ha [4, 14] of the same compound?
Its pest or weed control at 31 g/ha is 90%.

And the pest or weed control at 62 g/ha [4, 14]?
Its pest or weed control at 62 g/ha is 100%.

What about the pest or weed control at 125 g/ha [4, 15] of the same compound?
Its pest or weed control at 125 g/ha is 100%.

What about the pest or weed control at 250 g/ha [4, 15] of the same compound?
Its pest or weed control at 250 g/ha is 100%.

And the pest or weed control at 31 g/ha ([5]; post-emergence, Postemergence, read-out: Plant response rating (scale of 0 to 100), Velvetleaf)?
Its pest or weed control at 31 g/ha is 65%.

And the pest or weed control at 62 g/ha [5, 16]?
The pest or weed control at 62 g/ha was 70%.

What about the pest or weed control at 125 g/ha [5, 16] of the same compound?
Its pest or weed control at 125 g/ha is 80%.

And the pest or weed control at 250 g/ha ([5]; post-emergence, Postemergence, scale 0 to 100, read-out: Plant response rating, Velvetleaf)?
The pest or weed control at 250 g/ha was 100%.

And the pest or weed control at 31 g/ha [5, 17]?
The pest or weed control at 31 g/ha was 20%.

What about the pest or weed control at 62 g/ha [5, 17] of the same compound?
The pest or weed control at 62 g/ha was 50%.

And the pest or weed control at 125 g/ha [5, 18]?
Its pest or weed control at 125 g/ha is 75%.

What about the pest or weed control at 250 g/ha [5, 18] of the same compound?
The pest or weed control at 250 g/ha was 90%.

And the Corn plant response rating (crop injury, 0 = no effect, 100 = complete kill) at 31 g/ha (corn (Zea mays); post-emergence, Postemergence, read-out: Plant response rating (scale of 0 to 100), Corn)?
The Corn plant response rating (crop injury, 0 = no effect, 100 = complete kill) at 31 g/ha was 15%.

And the Corn plant response rating (crop injury, 0 = no effect, 100 = complete kill) at 62 g/ha (corn (Zea mays); post-emergence, Postemergence, scale 0 to 100 (0 no effect, 100 complete control), read-out: Corn plant response rating)?
Its Corn plant response rating (crop injury, 0 = no effect, 100 = complete kill) at 62 g/ha is 15%.

What about the Corn plant response rating (crop injury, 0 = no effect, 100 = complete kill) at 125 g/ha (corn (Zea mays); post-emergence, Postemergence, 125 g ai/ha, scale 0 to 100 (0 no effect, 100 complete control), read-out: Corn plant response rating) of the same compound?
The Corn plant response rating (crop injury, 0 = no effect, 100 = complete kill) at 125 g/ha was 20%.

And the Corn plant response rating (crop injury, 0 = no effect, 100 = complete kill) at 250 g/ha (corn (Zea mays); post-emergence, Postemergence, 250 g ai/ha, scale 0 to 100)?
The Corn plant response rating (crop injury, 0 = no effect, 100 = complete kill) at 250 g/ha was 30%.

And the Corn plant response rating (crop injury, 0 = no effect, 100 = complete kill) at 31 g/ha (corn (Zea mays); [19])?
Its Corn plant response rating (crop injury, 0 = no effect, 100 = complete kill) at 31 g/ha is 0%.

And the Corn plant response rating (crop injury, 0 = no effect, 100 = complete kill) at 62 g/ha (corn (Zea mays); [19])?
Its Corn plant response rating (crop injury, 0 = no effect, 100 = complete kill) at 62 g/ha is 0%.
